Measured values published in the NIST ThermoML archive (doi:10.1021/je300017m).

Assay: mn = molality of the nth substance listed, in mol/kg
Conditions: 101 kPa, Liquid

CCCCn1cc[n+](C)c1.[Br-] [1-butyl-3-methylimidazolium bromide] + C[S+](C)[O-]
Conditions	mass density [kg/m3]
293.15 K, m1 = 0.00417	1100.42
293.15 K, m1 = 0.00643	1100.53
293.15 K, m1 = 0.00951	1100.68
293.15 K, m1 = 0.01236	1100.82
293.15 K, m1 = 0.015	1100.95
293.15 K, m1 = 0.01784	1101.09
293.15 K, m1 = 0.02066	1101.23
293.15 K, m1 = 0.02307	1101.35
293.15 K, m1 = 0.02628	1101.51
293.15 K, m1 = 0.02848	1101.62
303.15 K, m1 = 0.00497	1090.6
303.15 K, m1 = 0.00823	1090.76
303.15 K, m1 = 0.01126	1090.91
303.15 K, m1 = 0.01409	1091.05
303.15 K, m1 = 0.01689	1091.19
303.15 K, m1 = 0.02008	1091.35
303.15 K, m1 = 0.02326	1091.51
303.15 K, m1 = 0.02642	1091.67
303.15 K, m1 = 0.02917	1091.82
303.15 K, m1 = 0.03153	1091.94
308.15 K, m1 = 0.00514	1085.66
308.15 K, m1 = 0.00817	1085.81
308.15 K, m1 = 0.01139	1085.97
308.15 K, m1 = 0.01418	1086.11
308.15 K, m1 = 0.01696	1086.25
308.15 K, m1 = 0.01992	1086.41
308.15 K, m1 = 0.02347	1086.59
308.15 K, m1 = 0.0264	1086.74
308.15 K, m1 = 0.02914	1086.88
308.15 K, m1 = 0.03167	1087.01
313.15 K, m1 = 0.00489	1080.7
313.15 K, m1 = 0.00769	1080.83
313.15 K, m1 = 0.01069	1080.98
313.15 K, m1 = 0.01325	1081.11
313.15 K, m1 = 0.01542	1081.23
313.15 K, m1 = 0.01934	1081.43
313.15 K, m1 = 0.02264	1081.6
313.15 K, m1 = 0.02575	1081.76
313.15 K, m1 = 0.02845	1081.9
313.15 K, m1 = 0.03154	1082.06

CCCCCCCCCCn1cc[n+](C)c1.[Br-] [1-decyl-3-methylimidazolium bromide] + C[S+](C)[O-]
Conditions	mass density [kg/m3]
293.15 K, m1 = 0.00402	1100.27
293.15 K, m1 = 0.00649	1100.3
293.15 K, m1 = 0.00933	1100.34
293.15 K, m1 = 0.01163	1100.38
293.15 K, m1 = 0.0141	1100.41
293.15 K, m1 = 0.0167	1100.45
293.15 K, m1 = 0.01877	1100.49
293.15 K, m1 = 0.02117	1100.53
293.15 K, m1 = 0.02341	1100.56
293.15 K, m1 = 0.02766	1100.63
303.15 K, m1 = 0.00542	1090.45
303.15 K, m1 = 0.00729	1090.48
303.15 K, m1 = 0.00969	1090.52
303.15 K, m1 = 0.01151	1090.55
303.15 K, m1 = 0.01339	1090.58
303.15 K, m1 = 0.01545	1090.61
303.15 K, m1 = 0.01741	1090.65
303.15 K, m1 = 0.01809	1090.66
303.15 K, m1 = 0.01996	1090.69
308.15 K, m1 = 0.00501	1085.49
308.15 K, m1 = 0.00676	1085.52
308.15 K, m1 = 0.01153	1085.59
308.15 K, m1 = 0.01415	1085.64
308.15 K, m1 = 0.01624	1085.68
308.15 K, m1 = 0.0184	1085.72
308.15 K, m1 = 0.02101	1085.76
308.15 K, m1 = 0.0233	1085.8
313.15 K, m1 = 0.00484	1080.52
313.15 K, m1 = 0.0071	1080.56
313.15 K, m1 = 0.00963	1080.6
313.15 K, m1 = 0.01229	1080.65
313.15 K, m1 = 0.01489	1080.69
313.15 K, m1 = 0.01739	1080.74
313.15 K, m1 = 0.0195	1080.78
313.15 K, m1 = 0.02205	1080.82
313.15 K, m1 = 0.02449	1080.87
